The subject of one data set is Akt (S473). In words: Immunoblotting of neutrophil lysates, Akt phosphorylation. It counts as cell-based, human. As to conditions: 10 μM bletinib; 0.1 μM fMLF. Here is the method: (§1) Neutrophils incubated with bletinib or DMSO at 37° C. for 5 min were stimulated with 0.1 μM fMLF for 30 s. The proteins were separated from neutrophil lysates through electrophoresis (12% sodium dodecyl sulphate-polyacrylamide gel electrophoresis) and then transferred to nitrocellulose membranes. The target proteins were identified through immunoblotting with specific antibodies against p38, p-p38, Akt, p-Akt S473, ERK, p-ERK, INK, p-JNK, Src, p-SFKs Y416, p-Src Y416, Lyn, p-Lyn (Y396), Fgr, p-Fgr (Y412), Hck, p-Hck (Y410), Btk, p-Btk Y223, Vav, and p-Vav (Y174) as well as with HRP-conjugated secondary anti-rabbit antibody (Cell Signaling Technology). The signal intensity was detected and quantified using the UVP BioSpectrum Imaging System (Analytik Jena, USA).

Another data set concerns p-ERK. As to the kind of experiment: Immunoblotting of neutrophil lysates, ERK phosphorylation. The class given is cell-based, human. As to conditions: 10 μM bletinib; 0.1 μM fMLF. Here is the method:
as §1

Data set [1] relates to human neutrophils. As to the kind of experiment: Extracellular superoxide anion production in stimulated neutrophils (ferricytochrome c reduction). It counts as cell-based. On the procedure:
Extracellular superoxide anion production in activated neutrophils was assessed through the reduction of ferricytochrome c. After incubating them with Ca^2+ (1 mM) and ferricytochrome c (0.5 mg/mL) at 37° C., the isolated human neutrophils (6×10^5 cells/mL) were then incubated with 0.1% DMSO or 0.3-10 μM bletinib for 5 min. The cells were pretreated with cytochalasin B (CB, 1 or 2 μg/mL) for 3 min and stimulated with fMLF, MMK-1, or sodium fluoride (NaF), or directly activated with phorbol-12-myristate-13-acetate (PMA). The change in absorbance at 550 nm was detected continuously using a spectrophotometer (U-3010, Hitachi, Tokyo, Japan), and superoxide anion levels were calculated using a method described previously (Hwang et al., 2003 Mol. Pharmacol. 64(6), 1419-1427).

A further data set deals with Hck (Y410). In words: Immunoblotting of neutrophil lysates, Hck phosphorylation. It counts as cell-based, human. As to conditions: 0.1 μM fMLF-stimulated neutrophils. Here is the method: as §1
In general terms: Immunoblotting shows a protein as a band on a membrane.

The test system of data set [2] is human neutrophils. As to the kind of experiment: Total ROS production, luminol-amplified chemiluminescence. It counts as cell-based. The conditions noted are these: 0.1-3 μM bletinib; 0.1 μM fMLF; dose-dependent. On the procedure:
Human neutrophils (2×10^6 cells/mL) were preincubated with 6 U mL^−1 horseradish peroxidase (HRP) and 37.5 μM luminol in a 96-well plate at 37° C. for 5 min. Cells were incubated with DMSO or bletinib for 5 min, followed by 0.1 μM fMLF stimulation. Chemiluminescence was then detected and analysed in real time on a 96-well chemiluminometer (Tecan Infinite F200 Pro; Mannedorf, Switzerland).

The subject of another data set is Vav (Y174). As to the kind of experiment: Immunoblotting of neutrophil lysates, Vav phosphorylation. The class given is cell-based, human. As to conditions: 0.1 μM fMLF-stimulated neutrophils. Here is the method: as §1
A further data set relates to Btk (Y223). As to the kind of experiment: Immunoblotting of neutrophil lysates, Btk phosphorylation. The class given is cell-based, human. The conditions noted are these: 0.1 μM fMLF-stimulated neutrophils. On the procedure: as §1
A further data set concerns the target Src (Homo sapiens, UniProt P12931). As to the kind of experiment: Cell-free ADP-Glo kinase assay, Src. The class given is biochemical. The conditions noted are these: 1-10 μM bletinib or 0.1-3 μM PP2; 125 μM ATP; concentration-dependent. On the procedure: The kinase activity of SFKs was assessed using an ADP-Glo kinase assay kit (Promega, Fitchburg, USA) according to manufacturer instructions. […] The ADP-Glo reagent was used to end the kinase reaction and remove the remnant ATP; next, the kinase, which converted ADP to ATP, detection reagent was added and incubated for 30 min. Luciferin/luciferase luminescence was determined on an Infinite 200 Pro (Tecan, Switzerland).
A general note: ADP-Glo turns the ADP formed in a reaction into a luminescent signal.

Data set [3] has as its system human neutrophils. In words: Cytotoxicity assessed using LDH release. The class given is cell-based. Here is the method: FIG. 1 Bletinib suppressed superoxide anion production in stimulated human neutrophils. Neutrophils (6×10^5 cells/mL) were incubated with 0.1% DMSO or […] bletinib for 5 min before activation with stimuli. Superoxide anion production was induced by (A) fMLF, (B) MMK-1, (C) NaF, or (D) PMA and then measured using ferricytochrome c reduction method. (E) Cytotoxicity was assessed using LDH release. (F) Superoxide scavenging capacity of bletinib was assessed in a xanthine/xanthine oxidase cell-free system. WST-1 reduction was measured through spectrophotometry at 450 nm, with 20 U/mL superoxide dismutase as the positive control.
(In general: LDH in the medium is a marker of cell lysis.)

The test system of another data set is Src (Y416). As to the kind of experiment: Immunoblotting of neutrophil lysates, Src phosphorylation. The class given is cell-based, human. The conditions noted are these: 0.1 μM fMLF-stimulated neutrophils. Here is the method:
as §1

The test system of the next data set is BALB/c mice. In words: LPS-induced ALI model in mice. The class given is in vivo. As to conditions: 25 mg/kg intraperitoneal. Here is the method:
A total of 24 male BALB/c mice were randomly divided into four groups (6 mice/group): vehicle alone, bletinib alone, LPS control, and bletinib treatment (bletinib+LPS). The mice were starved overnight and then intraperitoneally injected with 50 μL of bletinib (25 mg/kg) or 50 μL of vehicle (10% DMSO). ALI was induced through intratracheal spraying of 50 μL of LPS (from Escherichia coli O111:B4; 2 mg/kg) or 50 μL of 0.9% saline (in vehicle and bletinib alone group) under general anaesthesia with xylazine (6 mg/kg) and Zoletil 50 (30 mg/kg). Five hours later, mouse lungs were harvested after sacrifice and were frozen for myeloperoxidase (MPO) activity assay; they were also fixed with 10% formalin for histological sectioning and immunofluorescence staining.
The harvested lung tissues were washed with phosphate-buffered saline (PBS) and fixed with 10% formalin for 24 h. The samples were subsequently dehydrated, embedded with paraffin, sliced into 3-μm-thick sections with a microtome, and placed on glass slides. These sections were stained using haematoxylin and eosin (H&E) and corresponding antibodies. Then, images were acquired through light microscopy.
For immunofluorescence staining, tissue sections were incubated with antibodies against H3 (citH3; citrulline R2+R8+R17) and Ly6G at dilutions of 1:800 and 1:200, respectively. Anti-IgG secondary antibodies labelled with a fluorescent dye (Alexa Fluor 488 for citH3 or Alexa Fluor 568 for Ly6G) were used at dilutions of 1:1000 and 1:500, respectively. Immunofluorescence images were acquired through confocal microscopy (LSM 510 Meta, Zeiss).
The mouse lung tissues were suspended in a 0.5% hexadecyltrimethylammonium bromide buffer (pH 6.0) and then homogenised through sonication. To evaluate MPO activity, the MPO substrate buffer (containing PBS, 0.0005% hydrogen peroxide, and 0.2 mg/mL 0-dianisidine hydrochloride) was added to the homogenised tissue, and the light absorbance at 460 nm was detected by spectrophotometry, after which, MPO activity was calculated with reference to the standard curve of human MPO activity.

As usually defined, the IC50 is the concentration at which inhibition is half-maximal.

Sequence of Src (P12931 whole entry): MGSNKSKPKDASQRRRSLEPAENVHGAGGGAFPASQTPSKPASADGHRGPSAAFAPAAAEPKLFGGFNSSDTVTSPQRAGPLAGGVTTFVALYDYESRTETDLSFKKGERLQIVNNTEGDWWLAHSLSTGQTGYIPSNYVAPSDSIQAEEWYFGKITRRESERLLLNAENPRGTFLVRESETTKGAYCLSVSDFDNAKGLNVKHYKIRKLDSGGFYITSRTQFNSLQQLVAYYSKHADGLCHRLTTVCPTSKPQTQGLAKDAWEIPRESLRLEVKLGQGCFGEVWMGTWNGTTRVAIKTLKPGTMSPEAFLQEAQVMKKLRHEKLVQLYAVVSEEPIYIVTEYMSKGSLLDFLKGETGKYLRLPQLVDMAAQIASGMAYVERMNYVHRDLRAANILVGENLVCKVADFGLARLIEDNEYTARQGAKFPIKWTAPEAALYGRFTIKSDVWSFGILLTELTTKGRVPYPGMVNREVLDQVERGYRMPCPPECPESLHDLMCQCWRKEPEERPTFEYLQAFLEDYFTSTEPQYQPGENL

Consider `COc1cc(O)cc(CCc2c(Cc3ccc(O)cc3)ccc(O)c2Cc2ccc(O)cc2)c1` [bletinib, 3,3′-dihydroxy-2′,6′-bis(p-hydroxybenzyl)-5-methoxybibenzyl], for which the “phosphorylation of Akt” value in the data set with Akt (S473) is on record as “but not”. The “phosphorylation of ERK” value with p-ERK is “significantly inhibited”. Moreover, the IC50 with human neutrophils [1] (Homo sapiens, Neutrophil, fMLF stimulation, bletinib preincubated 5 min, read-out: superoxide anion produced by fMLF-activated human neutrophils, IC50) worked out at 0.62 µM. Moreover, the “superoxide anion release from neutrophils stimulated by MMK-1” value in the data set on human neutrophils [1] (MMK-1 stimulation) is on record as “attenuated”. For the same compound, in the data set with human neutrophils [1] (NaF stimulation), the “superoxide anion release from neutrophils stimulated by sodium fluoride (NaF)” value is “attenuated”. Moreover, the “superoxide anion release from neutrophils stimulated by PMA” value in the data set with human neutrophils [1] (PMA stimulation) is listed as “attenuated”. In addition, the “phosphorylation of Hck (Y410)” value in the data set with Hck (Y410) is “significantly inhibited”. In addition, in the data set with human neutrophils [2], the “ROS production, luminol-amplified chemiluminescence” value is “significantly suppressed”. Further, in the data set on Vav (Y174), the “phosphorylation of Vav (Y174)” value is given as “significantly inhibited”. The “phosphorylation of Btk (Y223)” value with Btk (Y223) was “significantly inhibited”. Besides, the “kinase activity of Src” value on Src is reported as “inhibited”. Further, the “cytotoxicity (LDH release)” value in the data set with human neutrophils [3] was “did not exhibit cytotoxicity”. The “phosphorylation of Src (Y416)” value in the data set on Src (Y416) is listed as “significantly inhibited”. In the data set on BALB/c mice (5 h after LPS spraying), the “MPO activity in the mouse lung tissues” value is “significantly ameliorated” and the “total protein levels in the mouse lung tissues” value is on record as “significantly ameliorated”. Further, in the data set on BALB/c mice (intratracheal LPS for 5 h), the “LPS-activated phosphorylation of Vav (p-Vav) in lung sections” value is “attenuated”, the “LPS-induced NET formation (Ly6G+citH3+ cell accumulation) in lung” value is on record as “considerably reduced” and the “distortion of the pulmonary architecture (lung histology)” value is listed as “significantly suppressed”.

For the origin of these results see patent US20220339122A1, “METHODS FOR THE TREATMENT OF DISEASES ASSOCIATED WITH DYSREGULATED ACTIVATION AND RECRUITMENT OF NEUTROPHILS” (Chang Gung University, priority 2021, published 2022).
